Measurements: patent US20250179045A1, “LPAR1 ANTAGONISTS AND USES THEREOF” (Contineum Therapeutics, Inc., priority 2021, published 2025)
pIC50: −log10 of the molar value. Like-named read-outs stand apart in the source and are kept apart here.

Biological target: human LPA1 (Homo sapiens, UniProt Q92633)
Assay: In vitro functional assay of lysophosphatidic acid receptor 1 activity (calcium flux)
Type: cell-based
Details: Fluo-4 NW calcium flux after lysophosphatidic acid (18:1) at EC80, compounds 100 pM to 10 μM
Experimental: In vitro functional assay of lysophosphatidic acid receptor 1 activity
Primary compound plates were prepared in 100% DMSO (Sigma-Aldrich), secondary compound plates were prepared at 10× concentration in DiVEM (Invitrogen), and tertiary compound plates were prepared at 3x concentration in assay buffer containing HBSS (no Ca^+2/Mg^+2, Invitrogen) and 0.1% BSA (Sigma-Aldrich). Fluo-4 NW calcium assay dye (Invitrogen) was prepared as per manufacturer's recommendations in assay buffer. B103 cells stably expressing human LPA1(J. Chun lab, UCSD) were grown to confluency in DMEM media (Invitrogen) containing 10% FBS (ATCC), […] (Sigma-Aldrich) and […] Geneticin (Sigma-Aldrich), and detached with Accutase (Sigma-Aldrich) prior to assay. The freshly detached cells were resuspended in growth media and plated in black, clear-bottom 96-well plates (Costar) containing compound (i.e., secondary compound plate) at a density of 5×10^4 cells/well. Once plated, cells were left at room temperature for 30 minutes and then transferred to a 37° C., […] incubator for 24 hours. After 24 hours, the growth media was then removed and freshly prepared Fluo-4 NW calcium assay dye was added to cells. Compounds (i.e. tertiary compound plates) were then added back to the dye/cells, returned to the incubator for 30 minutes, and then kept at room temperature for an additional 30 minutes. Finally, lysophosphatidic acid (18:1) at the EC80 concentration was added and calcium flux measured using FlexStation 3 (Molecular Devices). Sigmoidal dose-response curves were generated by measuring […] over 45 sec and calculating the area under the curve. Dose response curves and IC50 values were generated using Prism (GraphPad). Compounds were tested at a final concentration range of 100 pM to 10 μM in 0.10% DMSO.

[1] = B103 cells stably expressing human LPA1, read-out: LPA1 IC50

Chain of human LPA1 (Q92633 whole entry): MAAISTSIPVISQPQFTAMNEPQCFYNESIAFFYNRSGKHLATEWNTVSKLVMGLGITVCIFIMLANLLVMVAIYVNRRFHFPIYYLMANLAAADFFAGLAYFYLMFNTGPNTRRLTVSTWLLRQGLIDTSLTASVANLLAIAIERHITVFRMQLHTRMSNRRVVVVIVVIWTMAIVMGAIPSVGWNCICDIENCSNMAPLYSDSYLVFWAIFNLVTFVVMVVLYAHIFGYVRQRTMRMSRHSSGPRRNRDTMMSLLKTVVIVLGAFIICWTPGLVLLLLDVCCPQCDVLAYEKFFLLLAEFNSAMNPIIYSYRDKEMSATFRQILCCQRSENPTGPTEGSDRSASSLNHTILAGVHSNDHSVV

| Structure (SMILES) | pIC50 [1] | pIC50 (LPA1 IC50, B103 cells stably expressing human LPA1) |
| --- | --- | --- |
| Cc1cc(OC(F)F)c(NC(=O)C2(c3ccccc3C(C)C)CC(O)(C(F)(F)C(=O)O)C2)cn1 (single isomer, unassigned) [Example 94-isomer B, 2-(3-((4-(difluoromethoxy)-6-methylpyridin-3-yl)carbamoyl)-1-hydroxy-3-(2-isopropylphenyl)cyclobutyl)-2,2-difluoroacetic acid] | 7.00 to 8.00 |  |
| COc1ccc(NC(=O)C2(c3ccccc3C(C)C)CCC(S(N)(=O)=O)CC2)c(OC(F)F)n1 (centres unmarked) [Example 97, N-(2-(difluoromethoxy)-6-methoxypyridin-3-yl)-1-(2-isopropylphenyl)-4-sulfamoylcyclohexane-1-carboxamide] | 6.00 to 7.00 |  |
| CC(C)c1ccccc1C1(C(=O)Nc2cnc(Cl)cc2OC2CC2)COC1 [Example 32, N-(6-chloro-4-cyclopropoxypyridin-3-yl)-3-(2-isopropylphenyl)oxetane-3-carboxamide] | 6.00 to 7.00 |  |
| Cc1cc(OC(F)F)c(NC(=O)C2(c3ccccc3C(C)C)CC(O)(C(F)(F)C(=O)O)C2)cn1 (single isomer, unassigned) [Example 94-isomer A, 2-(3-((4-(difluoromethoxy)-6-methylpyridin-3-yl)carbamoyl)-1-hydroxy-3-(2-isopropylphenyl)cyclobutyl)-2,2-difluoroacetic acid] | 6.00 to 7.00 |  |
| COc1ccc(NC(=O)C2(c3ccccc3C(C)C)CCNC(=O)C2)c(OC(F)F)n1 (centres unmarked) [Example 116, N-(2-(difluoromethoxy)-6-methoxypyridin-3-yl)-4-(2-isopropylphenyl)-2-oxopiperidine-4-carboxamide] |  | 6.00 to 7.00 |
| Cc1ccc(NC(=O)C2(c3ccccc3C(C)C)CC(CC#N)C2)c(OC(F)F)n1 (mixture of isomers) [Example 63, 3-(cyanomethyl)-N-(2-(difluoromethoxy)-6-methylpyridin-3-yl)-1-(2-isopropylphenyl)cyclobutane-1-carboxamide] | 6.00 to 7.00 |  |
| COc1cc(Cl)ccc1NC(=O)C1(c2ccccc2C(C)C)COC1 [Example 21, N-(4-chloro-2-methoxyphenyl)-3-(2-isopropylphenyl)oxetane-3-carboxamide] | 7.00 to 8.00 |  |
| COc1ccc(NC(=O)C2(c3ccccc3C(C)C)COC2)c(OC)n1 [Example 18, N-(2,6-dimethoxypyridin-3-yl)-3-(2-isopropylphenyl)oxetane-3-carboxamide] | 6.00 to 7.00 |  |

Now from value to compound, other results behind:

| pIC50 [1] | Structure (SMILES) | pIC50 (LPA1 IC50, B103 cells stably expressing human LPA1) |
| --- | --- | --- |
| 7.00 to 8.00 | COc1ccc(NC(=O)C2(c3ccccc3C(C)C)CCC(=O)CC2)c(OC(F)F)n1 [Example 80, N-(2-(difluoromethoxy)-6-methoxypyridin-3-yl)-1-(2-isopropylphenyl)-4-oxocyclohexane-1-carboxamide] |  |
| < 6.00 | COc1ccc(NC(=O)C2(c3ccccc3C(C)C)CCC(C)(O)CC2)c(OC(F)F)n1 (single isomer, unassigned) [Example 83-isomer A, N-(2-(difluoromethoxy)-6-methoxypyridin-3-yl)-4-hydroxy-1-(2-isopropylphenyl)-4-methylcyclohexane-1-carboxamide] |  |
| 6.00 to 7.00 | CC(C)c1ccccc1C1(C(=O)Nc2ncc(Cl)cc2OC(F)F)CC(=O)N(C)C1 (single isomer, unassigned) [Example 7, N-(5-chloro-3-(difluoromethoxy)pyridin-2-yl)-3-(2-isopropylphenyl)-1-methyl-5-oxopyrrolidine-3-carboxamide] |  |
| < 6.00 | COc1nc(NC(=O)C2(c3ccccc3C(C)C)CNC(=O)C2)c(OC(F)F)cc1Cl (centres unmarked) [Example 12, N-(5-chloro-3-(difluoromethoxy)-6-methoxypyridin-2-yl)-3-(2-isopropylphenyl)-5-oxopyrrolidine-3-carboxamide] |  |
| 7.00 to 8.00 | CC(C)c1ccccc1C1(C(=O)Nc2ccc(Cl)nc2OC(F)F)CNC(=O)C1 (centres unmarked) [Example 108, N-(6-chloro-2-(difluoromethoxy)pyridin-3-yl)-3-(2-isopropylphenyl)-5-oxopyrrolidine-3-carboxamide] |  |
| < 6.00 | COc1nc(Cl)ccc1NC(=O)C1(c2ccccc2C(C)C)COC1 [Example 28, N-(6-chloro-2-methoxypyridin-3-yl)-3-(2-isopropylphenyl)oxetane-3-carboxamide] |  |
